The target of this experiment is SMYD3 (Homo sapiens (Human), UniProt Q9H7B4). The experiment can be described thus: SMYD3 biochemical assay (SPA, 3H-SAM methylation of MEKK2 protein substrate). The settings on record: read-out: SMYD3 Biochem IC50 (μM)*. The method, boiled down:
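SPA methyltransferase format: tag-cleaved human SMYD3, insect-cell GST-MEKK2 protein substrate, 3H-SAM donor, 30 min RT enzyme–compound preincubation, 100 uM cold SAM quench.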
Usually IC50 stands for the concentration needed to halve the response being measured. Turning to `COC(=O)CCS(=O)(=O)N1CC[C@H](NC(=O)c2cc(C3CC3)on2)C[C@@H]1C` [compound 280, methyl 3-(((2S,4S)-4-(5-cyclopropylisoxazole-3-carboxamido)-2-methylpiperidin-1-yl)sulfonyl)propanoate], the IC50 came out at 4.85 µM.
The same measure for `COCCCS(=O)(=O)N1CC[C@H](NC(=O)c2cc(C3CC3)on2)C[C@@H]1C` [compound 281, 5-cyclopropyl-N-((2S,4S)-1-((3-methoxypropyl)sulfonyl)-2-methylpiperidin-4-yl)isoxazole-3-carboxamide]: 1.87 µM; for `COC(=O)CCS(=O)(=O)N1CC[C@H](NC(=O)c2cc(C3CC3)on2)C[C@H]1C` [compound 282, methyl 3-(((2R,4S)-4-(5-cyclopropylisoxazole-3-carboxamido)-2-methylpiperidin-1-yl)sulfonyl)propanoate]: over 10 µM; for `COCCCS(=O)(=O)N1CC[C@H](NC(=O)c2cc(C3CC3)on2)C[C@H]1C` [compound 284, 5-cyclopropyl-N-((2R,4S)-1-((3-methoxypropyl)sulfonyl)-2-methylpiperidin-4-yl)isoxazole-3-carboxamide]: over 10 µM.
As for `CC(C)OCCS(=O)(=O)N1CC[C@H](NC(=O)c2cc(C3CC3)on2)C[C@H]1C` [compound 285, 5-cyclopropyl-N-((2R,4S)-1-((2-isopropoxyethyl)sulfonyl)-2-methylpiperidin-4-yl)isoxazole-3-carboxamide], the IC50 was over 10 µM.
The same measure for `C[C@H]1C[C@H](NC(=O)c2cc(C3CC3)on2)CCN1S(=O)(=O)c1ccc(Cl)nc1` [compound 287, N-((2S,4R)-1-((6-chloropyridin-3-yl)sulfonyl)-2-methylpiperidin-4-yl)-5-cyclopropylisoxazole-3-carboxamide]: over 10 µM; for `C[C@H]1C[C@H](NC(=O)c2cc(C3CC3)on2)CCN1S(=O)(=O)N1CCCC1` [compound 288, 5-cyclopropyl-N-((2S,4R)-2-methyl-1-(pyrrolidin-1-ylsulfonyl)piperidin-4-yl)isoxazole-3-carboxamide]: over 10 µM.
In the case of `CNS(=O)(=O)N1CC[C@@H](NC(=O)c2cc(C3CC3)on2)C[C@@H]1C` [compound 289, 5-cyclopropyl-N-((2S,4R)-2-methyl-1-(N-methylsulfamoyl)piperidin-4-yl)isoxazole-3-carboxamide], the IC50 is over 10 µM.
Next, `COC(=O)CCS(=O)(=O)N1CC[C@@H](NC(=O)c2cc(C3CC3)on2)C[C@@H]1C` [compound 290, methyl 3-(((2S,4R)-4-(5-cyclopropylisoxazole-3-carboxamido)-2-methylpiperidin-1-yl)sulfonyl)propanoate]: over 10 µM; `C[C@H]1C[C@H](NC(=O)c2cc(C3CC3)on2)CCN1S(=O)(=O)CCC(F)(F)F` [compound 292, 5-cyclopropyl-N-((2S,4R)-2-methyl-1-((3,3,3-trifluoropropyl)sulfonyl)piperidin-4-yl)isoxazole-3-carboxamide]: over 10 µM.
Next, `CC(C)OCCS(=O)(=O)N1CC[C@@H](NC(=O)c2cc(C3CC3)on2)C[C@H]1C` [compound 296, 5-cyclopropyl-N-((2R,4R)-1-((2-isopropoxyethyl)sulfonyl)-2-methylpiperidin-4-yl)isoxazole-3-carboxamide]: 5.97 µM; `CC[C@@H]1CN(C(=O)CCCN)CC[C@@H]1NC(=O)c1cc(C2CC2)on1` [compound 297, N-((3R,4S)-1-(4-aminobutanoyl)-3-ethylpiperidin-4-yl)-5-cyclopropylisoxazole-3-carboxamide]: 1.8 µM.
The same measure for `CC[C@@H]1CN(C(=O)CCCN)CC[C@H]1NC(=O)c1cc(C2CC2)on1` [compound 298, N-((3R,4R)-1-(4-aminobutanoyl)-3-ethylpiperidin-4-yl)-5-cyclopropylisoxazole-3-carboxamide]: 6.1 µM.
In the case of `CC[C@H]1CN(C(=O)CCCN)CC[C@H]1NC(=O)c1cc(C2CC2)on1` [compound 299, N-((3S,4R)-1-(4-aminobutanoyl)-3-ethylpiperidin-4-yl)-5-cyclopropylisoxazole-3-carboxamide], the IC50 worked out at 0.989 µM.
The same measure for `CC[C@H]1CN(C(=O)CCCN)CC[C@@H]1NC(=O)c1cc(C2CC2)on1` [compound 300, N-((3S,4S)-1-(4-aminobutanoyl)-3-ethylpiperidin-4-yl)-5-cyclopropylisoxazole-3-carboxamide]: 3.6 µM.
The same measure for `NCCCC(=O)N1CCC(NC(=O)c2cc(C3CC3)on2)CC12CCCCC2` (stereo not drawn) [compound 301, N-(1-(4-aminobutanoyl)-1-azaspiro[5.5]undecan-4-yl)-5-cyclopropylisoxazole-3-carboxamide]: 6.47 µM; for `CC[C@@H]1CC(NC(=O)c2cc(C3CC3)on2)C[C@H](CC)N1C(=O)CCCN` (stereo partly drawn) [compound 302, N-((2S,6R)-1-(4-aminobutanoyl)-2,6-diethylpiperidin-4-yl)-5-cyclopropylisoxazole-3-carboxamide]: 6.93 µM; for `CC1CN(C(=O)[C@H]2CC[C@H](N)CC2)CC(C)C1NC(=O)c1cc(C2CC2)on1` (stereo partly drawn) [compound 303, N-(1-((1r,4r)-4-aminocyclohexane-1-carbonyl)-3,5-dimethylpiperidin-4-yl)-5-cyclopropylisoxazole-3-carboxamide]: 1.78 µM.
With `N[C@H]1CC[C@H](C(=O)N2CCC(NC(=O)c3cc(C4CC4)on3)C(C(F)(F)F)C2)CC1` (stereo partly drawn) [compound 304, N-(1-((1r,4r)-4-aminocyclohexane-1-carbonyl)-3-(trifluoromethyl)piperidin-4-yl)-5-cyclopropylisoxazole-3-carboxamide], the IC50 came to 2.04 µM.
Next, `C[C@H](C(=O)N1CC[C@@H](NC(=O)c2cc(C3CC3)on2)C[C@H]1C)C1CCNCC1` [compound 305, 5-cyclopropyl-N-((2R,4R)-2-methyl-1-((S)-2-(piperidin-4-yl)propanoyl)piperidin-4-yl)isoxazole-3-carboxamide]: 1.17 µM; `C[C@@H]1C[C@H](NC(=O)c2cc(C3CC3)on2)CCN1C(=O)[C@H](C)C1CCNCC1` [compound 306, 5-cyclopropyl-N-((2R,4R)-2-methyl-1-((R)-2-(piperidin-4-yl)propanoyl)piperidin-4-yl)isoxazole-3-carboxamide]: 0.852 µM.
For `C[C@H](C(=O)N1CC[C@H](NC(=O)c2cc(C3CC3)on2)C[C@H]1C)C1CCNCC1` [compound 307, 5-cyclopropyl-N-((2R,4S)-2-methyl-1-((S)-2-(piperidin-4-yl)propanoyl)piperidin-4-yl)isoxazole-3-carboxamide], the IC50 was determined as 0.928 µM.
In the case of `C[C@@H]1C[C@@H](NC(=O)c2cc(C3CC3)on2)CCN1C(=O)[C@H](C)C1CCNCC1` [compound 308, 5-cyclopropyl-N-((2R,4S)-2-methyl-1-((R)-2-(piperidin-4-yl)propanoyl)piperidin-4-yl)isoxazole-3-carboxamide], the IC50 is 0.179 µM.
Turning to `C[C@H]1C[C@H](NC(=O)c2cc(C3CC3)on2)CCN1C(=O)CC(C)(C)CN` [compound 311, N-((2S,4R)-1-(4-amino-3,3-dimethylbutanoyl)-2-methylpiperidin-4-yl)-5-cyclopropylisoxazole-3-carboxamide], the IC50 was 1.62 µM.

The record behind these values is patent publication US10577363B2, “Substituted piperidine compounds” (EPIZYME, INC., priority 2014, dated 2020).
